SMILES strings stand for the structures.

The target in assay [1] is T1, human GIP receptor (Homo sapiens, UniProt P48546).
T1 construct: expressed in transfected cells; host or cells: BHK (baby hamster kidney) cells, membrane preparation
T1 sequence (P48546 22-466): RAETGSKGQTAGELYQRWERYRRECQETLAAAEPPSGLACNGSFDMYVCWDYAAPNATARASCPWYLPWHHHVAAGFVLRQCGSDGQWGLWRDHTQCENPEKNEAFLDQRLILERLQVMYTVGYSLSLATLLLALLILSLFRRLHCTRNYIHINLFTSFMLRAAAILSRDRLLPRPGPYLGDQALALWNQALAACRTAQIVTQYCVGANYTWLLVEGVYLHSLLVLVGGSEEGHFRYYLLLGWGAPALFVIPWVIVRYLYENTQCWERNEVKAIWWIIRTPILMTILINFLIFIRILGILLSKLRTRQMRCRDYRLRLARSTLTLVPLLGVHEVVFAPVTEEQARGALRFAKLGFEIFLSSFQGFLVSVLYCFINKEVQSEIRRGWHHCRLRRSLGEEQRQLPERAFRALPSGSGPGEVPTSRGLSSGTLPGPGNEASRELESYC
Put plainly: GIP Binding Assay. To be noted: membranes of BHK cells transfected with human GIP receptor, 125I-GIP, SPA; read-out: GIP Bd Assay IC50. The procedure:
BHK (baby hamster kidney cell line) cells are transfected with the human GIP receptor and a membrane preparation of the cells is prepared.
(§1) All steps in the membrane preparation are kept on ice or performed at 4° C. BHK cells are harvested and centrifuged. The pellet is resuspended in homogenisation buffer (25 mM) HEPES, pH=7.4, 2.5 mM CaCl2, 1.0 mM MgCl2, 250 mg/L bacitracin, 0.1 mM Pefabloc), homogenised 2×10 sec using Polytron 10-35 homogenizer (Kinematica) and added the same amount of homogenisation buffer as used for resuspension. After centrifugation (15 min at 2000×g) the supernatant is transferred to cold centrifuge tubes and centrifuged for 45 min at 40.000×g. The pellet is resuspended in homogenisation buffer, homogenised 2×10 sec (Polytron) and additional homogenisation buffer is added. The suspension is centrifuged for 45 min at 40.000×g and the pellet is resuspended in resuspension buffer (25 mM HEPES, pH=7.4, 2.5 mM CaCl2, 1.0 mM MgCl2) and homogenised 2×10 sec. (Polytron). […] Stabilisation buffer (25 mM HEPES, pH=7.4, 2.5 mM CaCl2, 1.0 mM MgCl2, 1% bovine serum albumin, 500 mg/L bacitracin, 2.5 M sucrose) is added and the membrane preparation is stored at −80° C.
The GIP binding assay is carried out in opti plates (Polystyrene Microplates, Packard). 50 μL assay buffer (25 mM HEPES, pH=7.5, 2.5 mM CaCl2, 1.0 mM MgCl2, 0.003% Tween-20, 0.005% bacitracin, 0.05% sodium azide) and 5 μL GIP or test compound (in DMSO) are added to each well. […] Finally 50 μL WGA beads containing 1 mg beads are transferred to the well. The opti plates are incubated for 3.5 hours on a shaker and then settled for 8-48 hours. The opti plates are counted in a Top-counter. Non-specific binding is determined with 500 nM of GIP.

The target of assay [2] is T2, human glucagon receptor (Homo sapiens, UniProt P47871).
T2 construct: expressed in transfected cells; host or cells: BHK (baby hamster kidney) cells, membrane preparation
T2 sequence (P47871 26-477): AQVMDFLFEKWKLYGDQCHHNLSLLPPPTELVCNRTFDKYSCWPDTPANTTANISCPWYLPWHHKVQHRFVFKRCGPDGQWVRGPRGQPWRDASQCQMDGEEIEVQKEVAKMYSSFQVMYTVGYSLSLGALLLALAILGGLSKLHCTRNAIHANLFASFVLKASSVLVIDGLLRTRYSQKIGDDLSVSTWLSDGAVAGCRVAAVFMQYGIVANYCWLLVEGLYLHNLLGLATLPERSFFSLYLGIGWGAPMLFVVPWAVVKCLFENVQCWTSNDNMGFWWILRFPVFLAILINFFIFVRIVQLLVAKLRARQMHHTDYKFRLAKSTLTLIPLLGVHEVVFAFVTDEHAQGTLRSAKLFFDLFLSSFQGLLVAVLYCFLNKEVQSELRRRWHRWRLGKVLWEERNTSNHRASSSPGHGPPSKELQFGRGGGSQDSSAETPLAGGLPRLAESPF
Put plainly: Glucagon Binding Assay (II). To be noted: membranes of BHK cells transfected with human glucagon receptor, 125I-glucagon, SPA; read-out: Glu Bd Assay (II) IC50. On the procedure:
Glucagon Binding Assay (II)
BHK (baby hamster kidney cell line) cells are transfected with the human glucagon receptor and a membrane preparation of the cells is prepared.
as §1, with “mM” for “mM)”
The glucagon binding assay is carried out in opti plates (Polystyrene Microplates, Packard). 50 μL assay buffer (25 mM HEPES, pH=7.5, 2.5 mM CaCl2, 1.0 mM MgCl2, 0.003% Tween-20, 0.005% bacitracin, 0.05% sodium azide) and 5 μL glucagon or test compound (in DMSO) are added to each well. […] Finally 50 μL WGA beads containing 1 mg beads are transferred to the well. The opti plates are incubated for 4 hours on a shaker and then settled for 8-48 hours. The opti plates are counted in a Topcounter. Non-specific binding is determined with 500 nM of glucagon.

As usually defined, the IC50 is the midpoint of a concentration-inhibition curve. `O=C(NC[C@@H](O)C(=O)O)c1ccc(CN(C(=O)Nc2ccc(SC(F)(F)F)cc2)c2ccc(C3CCCCC3)cc2)cc1` [Example 24, (R)-3-{4-[1-(4-Cyclohexylphenyl)-3-(4-trifluoromethylsulfanylphenyl)ureidomethyl]benzoylamino}-2-hydroxypropionic acid]: the IC50 in assay [1] came to 37 nM; in assay [2], 4.4 nM.
Taken in the same sequence, the figures for `O=C(NC[C@@H](O)C(=O)O)c1ccc(CN(CC(c2ccccc2)c2ccccc2)C(=O)Cc2ccc(OC(F)(F)F)cc2)cc1` [Example 60, (R)-3-[4-({(2,2-Diphenylethyl)-[2-(4-trifluoromethoxyphenyl)acetyl]amino}methyl)benzoylamino]-2-hydroxypropionic acid] were > 3000 nM and 1020 nM.
Taken in the same sequence, the figures for `O=C(NC[C@@H](O)C(=O)O)c1ccc(CN(C(=O)Nc2ccc3c(c2)C(F)(F)OC(F)(F)O3)c2ccc(C3=CCCCC3)cc2)cc1` [Example 30, (R)-3-{4-[1-(4-Cyclohex-1-enylphenyl)-3-(2,2,4,4-tetrafluoro-4H-benzo[1,3]dioxin-6-yl)ureido-methyl]benzoylamino}-2-hydroxypropionic Acid] were 217 nM and 13 nM.
Taken in the same sequence, the figures for `CC(C)(C)C1CCC(N(Cc2ccc(C(=O)NC[C@@H](O)C(=O)O)cc2)C(=O)Nc2ccc3c(c2)C(F)(F)OC(F)(F)O3)CC1` (stereo partly drawn) [Example 45, (R)-3-{4-[1-(4-tert-Butylcyclohexyl)-3-(2,2,4,4-tetrafluoro-4H-benzo[1,3]dioxin-6-yl)ureidomethyl]benzoylamino}-2-hydroxypropionic acid] were 373 nM and 61 nM.
As to `O=C(NC[C@@H](O)C(=O)O)c1ccc(CN(C(=O)Cc2cccc(OC(F)(F)F)c2)c2ccc(C3CCCCC3)cc2)cc1` [Example 64, (R)-3-[4-({(4-Cyclohexylphenyl)-[(3-trifluoromethoxyphenyl)acetyl]amino}methyl)benzoylamino]-2-hydroxypropionic acid], the IC50 was > 3000 nM in assay [1] and 514 nM in assay [2].
Taken in the same sequence, the figures for `O=C(NC[C@@H](O)C(=O)O)c1ccc(CN(C(=O)Nc2cc(F)cc(C(F)(F)F)c2)c2ccc(C3CCCCC3)cc2)cc1` [Example 6, (R)-3-{4-[1-(4-Cyclohexylphenyl)-3-(3-fluoro-5-trifluoromethylphenyl)ureidomethyl]benzoylamino}-2-hydroxypropionic acid] were 294 nM and 10 nM.
For `O=C(NC[C@@H](O)C(=O)O)c1ccc(CN(C(=O)Nc2ccccc2)c2ccc(C3=CCCCC3)cc2)cc1` [Example 21, (R)-3-{4-[1-(4-Cyclohex-1-enylphenyl)-3-phenylureidomethyl]benzoylamino}-2-hydroxypropionic acid] the same measures were 1260 nM and 293 nM.
Turning to `O=C(NC[C@@H](O)C(=O)O)c1ccc(CN(C(=O)Nc2ccc(OC(F)(F)F)c(CO)c2)c2ccc(C3CCCCC3)cc2)cc1` [Example 39, (R)-3-{4-[1-(4-Cyclohexylphenyl)-3-(3-hydroxymethyl-4-trifluoromethoxyphenyl)ureidomethyl]-benzoylamino}-2-hydroxypropionic Acid], the IC50 in assay [1] is 357 nM; in assay [2], 18 nM.
For `O=C(NC[C@@H](O)C(=O)O)c1ccc(CN(C(=O)Cc2cccc(C(F)(F)F)c2)c2ccc(C3CCCCC3)cc2)cc1` [Example 67, (R)-3-[4-({(4-Cyclohexylphenyl)-[(3-trifluoromethylphenyl)acetyl]amino}methyl)benzoylamino]-2-hydroxypropionic acid] the same measures were > 3000 nM and 520 nM.
Take `CO[C@H](CNC(=O)c1ccc(CN(C(=O)Nc2cc(Cl)cc(Cl)c2)c2ccc(C3=CCCCC3)cc2)cc1)C(=O)O` [Example 31, 3-{4-[1-(4-Cyclohex-1-enylphenyl)-3-(3,5-dichlorophenyl)ureidomethyl]benzoylamino}-2(R)-methoxypropionic Acid]: the IC50 in assay [1] is ≥ 3000 nM; in assay [2], 917 nM.
Taken in the same sequence, the figures for `CC(C)(C)c1cccc(NC(=O)N(Cc2ccc(C(=O)NC[C@@H](O)C(=O)O)cc2)c2ccc(C3CCCCC3)cc2)c1` [Example 38, (R)-3-{4-[3-(3-tert-Butylphenyl)-1-(4-cyclohexylphenyl)ureidomethyl]benzoylamino)-2-hydroxypropionic Acid] were 221 nM and 33 nM.
Taken in the same sequence, the figures for `O=C(NC[C@@H](O)C(=O)O)c1ccc(CN(C(=O)Cc2ccc(-c3ccccc3)cc2)c2ccc(C3CCCCC3)cc2)cc1` [Example 70, (R)-3-(4-{[(Biphenyl-4-ylacetyl)-(4-cyclohexylphenyl)amino]methyl}benzoylamino)-2-hydroxypropionic acid] were > 3000 nM and 740 nM.
Taken in the same sequence, the figures for `CC(NC(=O)N(Cc1ccc(C(=O)NC[C@@H](O)C(=O)O)cc1)c1ccc(C2CCCCC2)cc1)c1ccc(Br)cc1` (mixture of isomers) [Example 54, 3-{4-[3-[1(RS)-(4-Bromophenyl)ethyl]-1-(4-cyclohexylphenyl)ureidomethyl]benzoylamino}-2(R)-hydroxypropionic acid] were > 3000 nM and 390 nM.
As for `O=C(NC[C@@H](O)C(=O)O)c1ccc(CN(C(=O)Nc2cc(Cl)cc(Cl)c2)c2ccc(C3CCCCC3)cc2)cc1` [Example 27, (R)-3-{4-[1-(4-Cyclohexylphenyl)-3-(3,5-dichlorophenyl)ureidomethyl]benzoylamino}-2-hydroxypropionic Acid], the IC50 came out at 258 nM in assay [1] and 9.7 nM in assay [2].
Taken in the same sequence, the figures for `O=C(NC[C@@H](O)C(=O)O)c1ccc(CN(C(=O)Nc2cccc(Cl)c2)c2ccc(C3=CCCCC3)cc2)cc1` [Example 20, (R)-3-{4-[3-(3-Chlorophenyl)-1-(4-cyclohex-1-enylphenyl)ureidomethyl]benzoylamino}-2-hydroxypropionic acid] were 693 nM and 52 nM.
For `O=C(NC[C@@H](O)C(=O)O)c1ccc(CN(CC(c2ccccc2)c2ccccc2)C(=O)Cc2cc(F)cc(C(F)(F)F)c2)cc1` [Example 58, (R)-3-[4-({(2,2-Diphenylethyl)-[2-(3-fluoro-5-trifluoromethylphenyl)acetyl]amino}methyl)benzoylamino]-2-hydroxypropionic acid], the figures for the IC50 in assay [1] and in assay [2] were > 3000 nM and 957 nM, respectively.
Taken in the same sequence, the figures for `O=C(NC[C@@H](O)C(=O)O)c1ccc(CN(C(=O)Nc2cccc(Br)c2)c2ccc(C3=CCCCC3)cc2)cc1` [Example 11, (R)-3-{4-[3-(3-Bromophenyl)-1-(4-cyclohex-1-enylphenyl)ureidomethyl]benzoylamino}-2-hydroxypropionic acid] were 914 nM and 41 nM.
